Results reported in patent publication US10206898B2, “Compositions and methods for treating or preventing obesity in a subject in need thereof” (Amarin Pharmaceuticals Ireland Limited, priority 2013, dated 2019).

Tested on: patients with fasting triglyceride levels ≥200 mg/dl and <500 mg/dl despite statin therapy
Experiment: 12-week placebo-controlled, randomized, double-blind study: lipoprotein particle concentrations
Format: in vivo, human
Protocol: A multi-center, placebo-controlled, randomized, double-blind, 12-week study was performed to evaluate the efficacy and safety of >96% E-EPA in patients with fasting triglyceride levels ≥200 mg/dl and <500 mg/dl despite statin therapy (the mean of two qualifying entry values needed to be ≥185 mg/dl and at least one of the values needed to be ≥200 mg/dl). The primary objective of the study was to determine the efficacy of >96% E-EPA 2 g daily and 4 g daily, compared to placebo, in lowering fasting TG levels in patients with high risk for cardiovascular disease and with fasting TG levels ≥200 mg/dl and <500 mg/dl, despite treatment to LDL-C goal on statin therapy. The population for this study was men and women >18 years of age with a body mass index ≤45 kg/m^2 with fasting TG levels greater than or equal to 200 mg/dl and less than 500 mg/dl and on a stable does of statin therapy (with or without ezetimibe). The statin was atorvostatin, rosuvastatin or simvastatin. The dose of statin must have been stable for ≥4 weeks prior to the LDL-C/TG baseline qualifying measurement for randomization. The statin dose was optimized such that the patients are at their LDL-C goal at the LDL-C/TG baseline qualifying measurements. The same statin at the same dose was continued until the study ended. Approximately 702 patients were randomized at approximately 80 centers in the U.S. The study was a 18- to 20-week, Phase 3, multi-center study consisting of 2 study periods: (1) A 6- to 8-week screening period that included a diet and lifestyle stabilization, a non-statin lipid-altering treatment washout, and an LDL-C and TG qualifying period and (2) A 12-week, double-blind, randomized, placebo-controlled treatment period. After confirmation of qualifying fasting LDL-C and TG values, eligible patients entered a 12-week, randomized, double-blind treatment period. At Visit 4 (Week 0), patients were randomly assigned to 1 of the following treatment groups: • >96% E-EPA 2 g daily, • >96% E-EPA 4 g daily, or • Placebo. Eligible patients were randomly assigned at Visit 4 (Week 0) to receive orally >96% E-EPA 2 g daily, >96% E-EPA 4 g daily, or placebo. >96% E-EPA was provided in 1 g liquid-filled, oblong, gelatin capsules. The matching placebo capsule was filled with light liquid paraffin and contained 0 g of >96% E-EPA. >96% E-EPA capsules were to be taken with food (i.e. with or at the end of a meal). […]

For CC/C=C\C/C=C\C/C=C\C/C=C\C/C=C\CCCC(=O)OCC [Ethyl Eicosapentaenoate, ethyl eicosapentaenoate], the “reduction of median concentrations of total HDL over baseline when adjusted for placebo” value (4 g per day, stated as a reduction (P<0.0001)) was 7.4%, the “reduction of median concentrations of total LDL over baseline when adjusted for placebo” value (4 g per day, stated as a reduction (P<0.01)) was 7.7% and the “HDL % Change (placebo-adjusted, relative to baseline)” value (4 g/day, 12 weeks, statin-treated patients, median total HDL particle concentration) was −7.4%. For the same compound, the “LDL % Change (placebo-adjusted, relative to baseline)” value (4 g/day, 12 weeks, statin-treated patients, median total LDL particle concentration) was −7.7%.
